Target: fibroblast growth factor receptor 1 (FGFR1) (Homo sapiens, UniProt P11362)
Assay: cell-free kinase inhibition, caliper mobility shift assay, ATP at Km ([…])
Format: biochemical

fibroblast growth factor receptor 1 (FGFR1), sequence (P11362 22-822): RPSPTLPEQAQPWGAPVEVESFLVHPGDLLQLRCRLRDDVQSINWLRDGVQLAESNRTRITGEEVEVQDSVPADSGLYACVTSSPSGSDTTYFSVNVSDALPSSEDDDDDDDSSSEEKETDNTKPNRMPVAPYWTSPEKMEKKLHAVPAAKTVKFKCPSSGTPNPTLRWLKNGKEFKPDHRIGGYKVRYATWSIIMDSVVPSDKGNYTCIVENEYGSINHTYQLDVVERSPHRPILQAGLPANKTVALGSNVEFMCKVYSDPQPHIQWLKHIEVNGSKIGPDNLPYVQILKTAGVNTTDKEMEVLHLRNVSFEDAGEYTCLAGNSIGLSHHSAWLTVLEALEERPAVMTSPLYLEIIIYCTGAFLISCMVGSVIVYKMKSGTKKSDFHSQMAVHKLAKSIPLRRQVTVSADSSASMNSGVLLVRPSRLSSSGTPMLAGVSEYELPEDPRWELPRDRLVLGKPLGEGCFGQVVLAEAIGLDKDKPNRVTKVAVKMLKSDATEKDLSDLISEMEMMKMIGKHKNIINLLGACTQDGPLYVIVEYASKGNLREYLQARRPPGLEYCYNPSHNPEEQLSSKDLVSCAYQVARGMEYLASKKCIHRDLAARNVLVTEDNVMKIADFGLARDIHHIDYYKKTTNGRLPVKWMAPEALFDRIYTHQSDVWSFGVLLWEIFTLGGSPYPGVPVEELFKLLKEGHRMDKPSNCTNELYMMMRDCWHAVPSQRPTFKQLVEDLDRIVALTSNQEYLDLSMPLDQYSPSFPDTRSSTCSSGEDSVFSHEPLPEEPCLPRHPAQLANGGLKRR

IC50: 2700 ± 540 nM
SMILES: CCOc1ccc(/C=C2\CC[C@@]3(C2=O)[C@@H](c2ccc(OCC)cc2)CN(C)[C@]32C(=O)c3cccc4cccc2c34)cc1 [G141]

— publication PMC4819196, “A novel fibroblast growth factor receptor 1 inhibitor protects against cartilage degradation in a murine model of osteoarthritis” (Scientific Reports, 2016)
